Structures are written as SMILES. Residues, ends and D or L forms follow the SMILES beside them.

In this assay the target is T1, human sweet taste receptor (hT1R2+hT1R3) (Homo sapiens, UniProt Q7RTX0+Q8TE23).
T1 sequence (Q8TE23 20-839): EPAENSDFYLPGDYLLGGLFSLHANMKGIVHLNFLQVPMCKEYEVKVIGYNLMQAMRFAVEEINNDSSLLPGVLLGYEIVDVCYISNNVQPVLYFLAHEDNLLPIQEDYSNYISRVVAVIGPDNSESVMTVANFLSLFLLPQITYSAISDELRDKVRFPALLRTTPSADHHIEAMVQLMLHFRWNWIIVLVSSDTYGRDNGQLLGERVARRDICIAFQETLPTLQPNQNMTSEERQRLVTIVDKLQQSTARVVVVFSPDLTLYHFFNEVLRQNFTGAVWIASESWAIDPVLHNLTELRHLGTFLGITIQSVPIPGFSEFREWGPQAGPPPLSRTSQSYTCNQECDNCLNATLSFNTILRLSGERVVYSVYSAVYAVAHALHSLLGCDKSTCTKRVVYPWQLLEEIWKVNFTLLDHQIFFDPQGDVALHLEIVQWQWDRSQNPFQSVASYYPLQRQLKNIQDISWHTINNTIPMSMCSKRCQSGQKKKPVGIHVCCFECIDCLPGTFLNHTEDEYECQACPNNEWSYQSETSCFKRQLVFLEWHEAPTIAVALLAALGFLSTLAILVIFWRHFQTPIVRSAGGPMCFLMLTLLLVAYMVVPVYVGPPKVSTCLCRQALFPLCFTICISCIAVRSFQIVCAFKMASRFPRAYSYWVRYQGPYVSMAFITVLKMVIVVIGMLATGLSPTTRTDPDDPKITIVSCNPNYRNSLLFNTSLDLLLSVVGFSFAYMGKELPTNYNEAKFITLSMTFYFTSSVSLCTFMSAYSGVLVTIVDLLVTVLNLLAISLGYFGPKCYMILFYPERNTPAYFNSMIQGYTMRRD
T1 sequence (Q7RTX0 21-852): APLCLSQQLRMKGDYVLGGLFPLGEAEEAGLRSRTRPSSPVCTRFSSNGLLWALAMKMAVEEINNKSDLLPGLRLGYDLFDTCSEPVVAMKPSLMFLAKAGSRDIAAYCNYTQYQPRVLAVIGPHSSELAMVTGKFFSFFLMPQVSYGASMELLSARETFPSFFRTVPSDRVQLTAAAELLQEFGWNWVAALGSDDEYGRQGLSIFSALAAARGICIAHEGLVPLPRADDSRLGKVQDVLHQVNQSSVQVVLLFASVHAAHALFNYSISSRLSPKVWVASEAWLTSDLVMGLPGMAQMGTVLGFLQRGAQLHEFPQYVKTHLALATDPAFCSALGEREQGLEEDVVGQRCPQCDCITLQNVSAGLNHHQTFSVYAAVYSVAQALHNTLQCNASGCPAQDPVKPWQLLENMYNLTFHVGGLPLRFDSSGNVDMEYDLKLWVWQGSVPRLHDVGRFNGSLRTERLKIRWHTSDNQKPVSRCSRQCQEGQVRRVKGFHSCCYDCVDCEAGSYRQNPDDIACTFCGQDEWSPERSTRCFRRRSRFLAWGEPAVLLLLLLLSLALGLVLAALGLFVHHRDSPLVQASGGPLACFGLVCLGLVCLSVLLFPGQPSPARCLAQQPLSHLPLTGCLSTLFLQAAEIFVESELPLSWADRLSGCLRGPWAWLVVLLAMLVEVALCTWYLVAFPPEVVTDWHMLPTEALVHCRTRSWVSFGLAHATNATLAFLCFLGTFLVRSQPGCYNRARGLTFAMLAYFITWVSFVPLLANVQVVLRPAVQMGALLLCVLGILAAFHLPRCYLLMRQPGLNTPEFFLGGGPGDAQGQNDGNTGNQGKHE
Kind of assay: Fluorescent microscope calcium imaging (Fura-2 AM) of cultured cell strains (A) to (C). Conditions: for cell response (response cell number of 100 randomly selected cells): Aspartame final concentration 10 mM, FIG. 11.

Experimental: Fluorescent calcium imaging using a fluorescent microscope can be performed according to the following procedure.
First, cells are suspended in a low glucose (1,000 mg/ml) DMEM medium, from which hygromycin B has been removed, and each 40 to 80 thousands cells are seeded on each well of a 96-well plate (Greiner, Lumox).
Then, after cultured at 37° C. for 24 to 48 hours, a medium is removed and is replaced with a suitable amount of a HEPES buffer, and a HEPES buffer containing a fluorescent calcium indicator (Fura-2 AM) is further added.
After incubated at 27 to 37° C. for 30 to 60 minutes, an extracellular fluorescent indicator is removed, and this is finally replaced with a suitable amount of a HEPES buffer, and is allowed to stand at room temperature for 10 to 20 minutes. By adding thereto a sweet taste substance at a particular concentration or a solution of a sweet taste substance and a substance to be tested, taste stimulation is performed at room temperature. In the fluorescent indicator Fura-2 (excitation wavelength: 340 nm/380 nm, fluorescent wavelength: 510 nm), a fluorescent intensity of excitation at 340 nm is increased, and a fluorescent intensity of excitation at 380 nm is reduced, when a calcium ion concentration is increased.
Cells loaded with Fura-2 AM were excited at 340 nm and 380 nm, and a fluorescent image observed at 510 nm was taken using a fluorescent microscope and a CCD camera. While the image was taken, Aspartame at a final concentration of 10 mM was administered to cells and, thereafter, the image was continuously taken. From the field of the taken image, 100 cells were randomly selected, and the response cell number was counted.
Cells loaded with Fura-2 AM were excited at 340 nm and 380 nm, and a fluorescent image observed at 510 nm was taken using a fluorescent microscope and a CCD camera. While the image was taken, Aspartame at each final concentration of 0.1 mM, 0.5 mM, 1 mM, 2 mM and 5 mM was administered to cells and then the image was continuously taken.
Cells loaded with Fura-2 AM were excited at 340 nm and 380 nm, and a fluorescent image observed at 510 nm was taken by using a fluorescent microscope and a CCD camera. While the image was taken, Sucrose at each final concentration of 20 mM, 50 mM, 100 mM, 200 mM, 500 mM and 1 M was administered to cells and then the image was continuously taken.
Cells loaded with Fura-2 AM were excited at 340 nm and 380 nm, and a fluorescent image observed at 510 nm was taken by using a fluorescent microscope and a CCD camera. While the image was taken, sucrose at final concentration of 500 mM was administered to cells and then the image was continuously taken.

On to `COC(=O)[C@H](Cc1ccccc1)NC(=O)[C@@H](N)CC(=O)O` [aspartame] (H-Asp-Phe-OMe), for which the “cell response (response cell number of 100 randomly selected cells)” value is “very strong cell response was observed” (cultured cell strain (A)); “weaker cell response was observed” (cultured cell strain (B), compared with strain (A)); “weaker cell response was observed” (cultured cell strain (C), compared with strain (A)). The “sweet taste response (fluorescent images)” value (cultured cell strain (A), Aspartame in a range of 0.1 mM to 5 mM, FIG. 12) was “concentration-dependent sweet taste response was observed”.

Source of the values: patent US8658383B2, “Sweet taste receptor-expressing construct, cell body expressing the same, and utilization thereof” (T. Hasegawa Co., Ltd., priority 2009, dated 2014).
